Assay results: the supplement of paper PMC8960247
± gives the standard error.

Legend:
621-103 (TSC2-rescued) = test: relative viability vs DMSO; higher = less cytotoxic; conditions: serum: 10% FBS, 72 h
621-102 (TSC2-deficient) = test: as above; conditions: serum: 10% FBS, 72 h
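Also: immortalized renal angiomyolipoma cells stably carrying empty vector or TSC2, dosed in 384-well plates in DMEM, viability normalized to vehicle-treated wells within each plate.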

SMILES	relative viability (621-103 (TSC2-rescued); 0.0001 µM) [%]	relative viability (621-103 (TSC2-rescued); 0.001 µM) [%]	relative viability (621-103 (TSC2-rescued); 0.01 µM) [%]	relative viability (621-103 (TSC2-rescued); 0.1 µM) [%]	relative viability (621-103 (TSC2-rescued); 1 µM) [%]	relative viability (621-103 (TSC2-rescued); 10 µM) [%]	relative viability (621-102 (TSC2-deficient); 0.0001 µM) [%]	relative viability (621-102 (TSC2-deficient); 0.001 µM) [%]	relative viability (621-102 (TSC2-deficient); 0.01 µM) [%]	relative viability (621-102 (TSC2-deficient); 0.1 µM) [%]	relative viability (621-102 (TSC2-deficient); 1 µM) [%]	relative viability (621-102 (TSC2-deficient); 10 µM) [%]
COc1cccc2cc(-c3nc([C@H]4CC[C@H](C(=O)O)CC4)n4ncnc(N)c34)[nH]c12 [OSI-027]	105 ± 2.6	101.3 ± 0.67	100.8 ± 0.85	94.6 ± 4.2	81.7 ± 4.1	32.3 ± 0.85	79.6 ± 8.2	88.5 ± 5.6	91.5 ± 7	90 ± 1.8	77.9 ± 2.4	25.2 ± 0.58
C#Cc1cccc(Nc2ncnc3cc(OCCOC)c(OCCO)cc23)c1 [OSI-420]	102.2 ± 0.8	101.12 ± 0.0035	106.2 ± 0.97	100 ± 1.9	101.78 ± 0.034	74.8 ± 1.7	118 ± 6.5	106.9 ± 0.52	103 ± 0.19	95.9 ± 4	115 ± 2.9	95.8 ± 1.9
O=C(Nc1ccc(OC(F)(F)F)cc1)c1sccc1NCc1ccnc2ccccc12 [OSI-930]	95.6 ± 0.43	106 ± 1.1	108 ± 3.1	108 ± 1.7	103 ± 1.7	100.9 ± 0.9	84 ± 2.4	116 ± 2.3	114 ± 4.7	111.7 ± 0.23	112 ± 1.4	108 ± 5
Cc1cc2c(s1)Nc1ccccc1N=C2N1CCN(C)CC1 [Olanzapine (Zyprexa)]	103 ± 3	100.7 ± 0.71	102 ± 4	104.8 ± 1	96.8 ± 2.5	95.1 ± 1.2	108 ± 1.3	105 ± 3.1	110 ± 2.6	115 ± 5.1	108 ± 1.7	105 ± 4.6
